We go through one molecule from US20240390377A1, “COMPOSITION FOR THE PREVENTION OR TREATMENT OF NEURODEGENERATIVE OR MOTOR NEURON DISEASES COMPRISING HALOFUGINONE AS AN ACTIVE INGREDIENT” (CURAMYS CO., LTD., priority 2022, published 2024).

The test system of one assay is C2C12 cells. Description: Western blot analysis of C2C12 myoblasts (TGF-β1 stimulation, halofuginone treatment). The format is cell-based, mouse. As for the experimental part: Specifically, C2C12 cells (CRL-1772) were purchased from the American Type Culture Collection (ATCC) and maintained in DMEM medium (Welgene) containing 10% (v/v) fetal bovine serum (FBS; Gibco) and 1% penicillin-streptomycin (P/S; Gibco) at 37° C. under 5% CO2 conditions. The C2C12 cells were seeded in 6-well plates at a density of 3×10^5 cells per well and allowed to adhere for 24 hours. Subsequently, the medium was replaced with serum-free medium after 24 hours, followed by stimulation with 5 ng/ml rhTGF-β1 (recombinant human TGF-β1; R&D Systems). After stimulation, the cells were treated with various concentrations (0 [control], or 1, 2.5, 5 [low dose], 10 [high dose], 20, 50, 100 ng/ml) of halofuginone (Sigma) in serum-free medium for 24 hours.
(§1) Specifically, the lumbar spinal cord or knee joint of the mouse of Example 6 was separated and immediately frozen at −80° C. Each lumbar spinal cord or knee joint was then homogenized and chemically treated to obtain cells. The chemically treated cells, the C2C12 cells of Example 1 or the fibroblasts of Example 5 were dissolved in a RIPA buffer (Thermo, MA, USA) with a protease inhibitor and a phosphatase inhibitor (Roche, IN, USA) and incubated on ice for 30 minutes. After centrifugation of the lysate at 13,000 rpm at 4° C. for 20 min, insoluble substances were removed. Protein concentrations were measured by BCA analysis (Pierce Biotechnology). Equal volumes of cell lysate were loaded onto SDS-PAGE gels for electrophoresis, and transferred onto nitrocellulose membranes (Amersham Protran 0.2 um NC, Amersham Pharmacia Biotech, Piscataway, NJ, USA). The membranes were then blocked with 5% (w/v) skimmilk in 1×TBST for 1 h at room temperature. After blocking, anti-RB-actin antibody (1:5000; Santa Cruz, cat #sc47778), anti-Smad2 antibody (1:1000; Cell Signaling, cat #5339), anti-p-Smad2 antibody (1:1000; Cell Signaling, cat #3108), anti-TGF-β1 antibody (1:1000; Santa Cruz, cat #sc130348), anti-α-SMA antibody (1:10000; abcam cat #ab7817), anti-MyoD antibody (1:1000; cat #sc377460), anti-collagen|antibody (1:1000; abcam cat #ab21286), anti-cleaved caspase-3 antibody (1:1000; Cell Signaling, cat #9661), anti-bax antibody (1:500; Santa Cruz, cat #sc493), anti-bcl2 antibody (1:1000; Novus Biologics, cat #NB100-56098), anti-ChAT antibody (1:1000; Millipore, cat #AB144) were treated and incubated overnight at 4° C. Subsequently, membranes were washed several times with 1×TBST and incubated with horseradish peroxidase-conjugated secondary antibodies (anti-mouse, rabbit or goat, 1:5000; GE Healthcare) in blocking buffer for 1 h at room temperature (RT). The membranes were then washed, briefly incubated with the SuperSignal West Pico Plus Chemical Substructure (Pierce Biotechnology) according to the manufacturer's procedure, and quantified with an image analyzer (Amersham Pharmacia Biotech, Piscataway, NJ, USA). β-actin was used as an internal control group. The concentration measurement of protein intensity was quantified using Image J (National Institutes of Health).
Specifically, after treating C2C12 cells with TGF-β1 for 24 hours as in Example 1, real-time qRT-PCR was performed in the same manner as in Example 11 to confirm TGF-β1, 2 and 3, α-SMA and MyoD mRNA expression (FIG. 2a), and Western blot analysis was performed in the same manner as in Example 12 to confirm autocrine expression of TGF-β1 and MyoD protein and α-SMA (FIG. 2b).
Specifically, C2C12 cells were treated with halofuginone after TGF-β1 stimulation or no stimulation in the same manner as described in Example 2, and cell viability analysis was performed through CCK-8 analysis (FIGS. 3a and 3b), and Western blot analysis was performed in the same manner as described in Example 12 to confirm autocrine expression of p-Smad2, Smad2, TGF-β1, MyoD, collagen I protein and α-SMA (FIG. 3c). […]
(In western blotting, separated proteins are transferred to a membrane and probed.)

For assay [1], the system named is G93A mutant SOD1 transgenic mice. Description: Western blot analysis of lumbar spinal cord in ALS animal model. It is filed as in vivo, mouse. Here is the method:
As a control group, non-transgenic mice were injected intraperitoneally (i.p.) with vehicle (DMSO) in the same manner for the same period of time.
as §1, with “Subsequently, membranes were washed several times with 1×TBST and incubated with horseradish peroxidase-conjugated secondary antibodies (anti-mouse, rabbit or goat, 1:5000; GE Healthcare) in blocking buffer for 1 h at room temperature (RT).” left out
In addition, to investigate the motor neuron source of the spinal cord, motor neurons of the lumbar spinal cord were observed and counted in the same manner as described in Example 9 (FIG. 9d), and real-time qRT-PCR and Western blot analysis were performed in the same manner as described in Example 11 and Example 12 to quantitatively analyze the expression of ChAT mRNA (FIG. 9e) and ChAT protein (FIG. 9f). […]

The mark [2] stands for this setting: halofuginone 5 ng/ml and 10 ng/ml, 24 h after TGF-β1 stimulation (FIG. 3c).
Setting [3] is: 120 days of age, change in DMSO TG vs DMSO Non-TG (FIG. 11b).

In the case of `O=C(C[C@H]1NCCC[C@@H]1O)Cn1cnc2cc(Br)c(Cl)cc2c1=O` (racemic) [halofuginone], in the assay with C2C12 cells (setting [2]), the “decrease in MyoD protein level by TGF-β1 stimulation” value is listed as “significantly recovered”, the “increase in TGF-β1 protein level by TGF-β1 stimulation” value is recorded as “significantly reduced”, the “increase in collagen I protein level by TGF-β1 stimulation” value was “significantly reduced” and the “increase in p-Smad2/Smad2 ratio by TGF-β1 stimulation” value is “significantly reduced”. The “increase in α-SMA protein level by TGF-β1 stimulation” value in the assay with C2C12 cells (setting [2]) was “significantly reduced”. The “TGF-β1, α-SMA, MyoD and collagen I protein expression, compared with the mRNA result” value in the assay on C2C12 cells (low or high concentration halofuginone, 24 h after TGF-β1 stimulation (FIG. 4b)) is “the same”. Moreover, the “ChAT expression (protein) in lumbar spinal cord” value in assay [1] (120-day-old mice, compared to DMSO Non-TG group (FIG. 9f)) is on record as “preserved similarly”. Also, in assay [1] (setting [3]), the “decreased protein expression of bcl-2 in lumbar spinal cord” value is recorded as “improved”, the “increased protein expression of bax in lumbar spinal cord” value is reported as “improved” and the “increased protein expression of cleaved caspase-3 in lumbar spinal cord” value was “improved”.
